Measured values taken from US20200157144A1, “ANTIMICROBIAL PEPTIDOMIMETICS” (priority 2017, published 2020).
Values after ≈ are worked out from the molar mass of the structure shown. Values joined by “and” are separate entries in the source; they are usually repeats but may differ in a detail not shown here. Identical values can stand only once. Like-named read-outs stand apart in the source and are kept apart here.

Columns and labels:
Assay in all cases: microbe, parasite or virus in culture
[1] = tested on: Mupirocin-resistant MRSA ATCC-BAA-1750 (USA200); format: cell-based, Staphylococcus aureus; details: Staphylococcus aureus
Method in brief: (§1)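 Broth microdilution (CLSI M07-A9), cation-adj. MH2; ~1×10^6 CFU/mL; 100→0.195 μM, 2-fold, n=2; o/n 35° C, 220 RPM; OD600; MIC = lowest inhibitory μM.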

[2] = tested on: Mupirocin-susceptible MRSA ATCC-BAA-1754 (ST45); format: cell-based, Staphylococcus aureus; details: Staphylococcus aureus
Method in brief: as §1

[3] = tested on: Mupirocin-susceptible MRSA ATCC-700699 (VISA); format: cell-based, Staphylococcus aureus; details: Staphylococcus aureus
Method in brief: as §1

[4] = tested on: Mupirocin-susceptible MRSA ATCC-33592 (ST239); format: cell-based, Staphylococcus aureus; details: Staphylococcus aureus
Method in brief: as §1

[5] = tested on: Mupirocin-susceptible MRSA ATCC-BAA-1707 (USA400); format: cell-based, Staphylococcus aureus; details: Staphylococcus aureus
Method in brief: as §1

[6] = tested on: Mupirocin-resistant MRSA ATCC-BAA-1708; format: cell-based, Staphylococcus aureus; details: Staphylococcus aureus
Method in brief: as §1

[7] = tested on: Mupirocin-susceptible MRSA ATCC-BAA-1681 (USA100); format: cell-based, Staphylococcus aureus; details: Staphylococcus aureus
Method in brief: as §1

[8] = tested on: Mupirocin-susceptible MRSA ATCC-BAA-1756 (USA300); format: cell-based, Staphylococcus aureus; details: Staphylococcus aureus
Method in brief: as §1

[9] = tested on: Mupirocin-resistant MRSA ATCC-BAA-1556; format: cell-based, Staphylococcus aureus; details: Staphylococcus aureus
Method in brief: as §1

[10] = tested on: Mupirocin-susceptible MRSA ATCC-BAA-2762 (EMRSA15, ST22); format: cell-based, Staphylococcus aureus; details: Staphylococcus aureus
Method in brief: as §1

[11] = tested on: S. aureus ECL 2963646; format: cell-based; details: Staphylococcus aureus, ECL2963646; S. aureus ECL 2963646; CAMHB II; read-out: MIC
Description: (§2) The antibacterial potency of Compound 34 was measured using the in vitro broth microdilution assay under assay conditions described by the Clinical and Laboratory Standards Institute. […] The test substance was dissolved in 100% DMSO (unless stated below), suspended completely by sonication or vortexing, diluted by 2-fold serial titrations in the same vehicle, for a total of 11 test concentrations. A 4 μL aliquot of each dilution was added to 196 μL of broth medium seeded with the organism suspension in wells of a 96 well plate (bacterial count: 2-8×10^5 colony forming units/mL final). The final volume was 200 μL in each well and the final DMSO concentration was 2%. The incubation time is 1 day at 36° C. All strains tested underwent aerobic respiration. Following incubation, the test plates were visually examined and wells were scored for growth or complete growth inhibition to define the minimum inhibitory concentration. Each test substance was evaluated in duplicate and the results below are the duplicate test values. Vehicle-control and an active reference agent were used as blank and positive controls, respectively.

[12] = tested on: S. aureus NARSA VRS11b; format: cell-based; details: Staphylococcus aureus; S. aureus NARSA VRS11b; CAMHB II; read-out: MIC
Description: as §2

[13] = tested on: S. aureus NARSA VRS3a; format: cell-based; details: Staphylococcus aureus; S. aureus NARSA VRS3a; CAMHB II; read-out: MIC
Description: as §2

[14] = tested on: S. aureus NARSA VRS2; format: cell-based; details: Staphylococcus aureus; S. aureus NARSA VRS2; CAMHB II; read-out: MIC
Description: as §2

[15] = tested on: S. aureus NARSA VRS1; format: cell-based; details: Staphylococcus aureus; S. aureus NARSA VRS1; CAMHB II; read-out: MIC
Description: as §2

[16] = tested on: S. aureus (ATCC BAA-1556); details: Staphylococcus aureus, ATCCBAA1556, 24 h, read-out: Mean MIC
Description: S. aureus (BAA-1556) was from ATCC. Mupirocin (Cat # M2955) was purchased from TCI chemicals (India) Pvt. […] Ltd, India, Cation adjusted Mueller Hinton broth (CAMHB) and Mueller Hinton Agar (MHA) (Cat # M1657) were from HiMedia Laboratories Pvt. Ltd, India.
The MIC assay was done based on CLSI guidelines in a microtitre plate format (1, 2). Preparation and dilution of Test Item (TI) stock solutions: A 1280 μg/ml stock of Compound 34 was prepared by dissolving 1.28 mg in 1.0 ml of sterile water to obtain the Master Stock (MS) solution. The MS solution was diluted 2-fold to obtain a series of Working Stock (WS) solutions (Table 7). The final concentration of solvent in the assay was 2.5% and the assay volume was […].
Preparing the inoculum: One day before initiation of experiment, an isolated colony of S. aureus (ATCC BAA-1556) was inoculated into sterile CAMHB and incubated at 37° C. to exponential phase. After incubation, the turbidity was adjusted to that of a 0.5 McFarland Standard (approximately equivalent to 1.0×10^8 CFU/ml) and diluted to ˜1.0×10^6 CFU/ml.
MIC Assay: The MIC assay was performed in a 96 well microtitre plate in a total assay volume of 100 μl (Table 7). Each well containing different concentrations of test compound (concentration range between 0.015625 and 16.0 μg/ml) was inoculated with 50 μl of bacterial suspension (prepared from the inoculum grown overnight and adjusted approximately to 5.0×10^5 CFU/ml) along with culture control (CC, culture in broth), broth control (BC, broth only), and vehicle control (VC, 2.5% solvent in broth plus culture). The plate was incubated at 37° C. for 24 hr and turbidity was measured spectrophotometrically (Absorbance microplate reader, BioTek® India, ELx800™) at 600 nm and visually. The experiment was done in duplicates. The inoculum was also plated for enumeration of bacteria. The MIC was defined as the lowest concentration of test compound that prevented bacterial growth (lack of turbidity by OD at 600 nm and visual inspection relative to no growth control).

[17] = tested on: Enterococcus faecalis ATCC 51299; format: cell-based; details: Enterococcus faecalis, ATCC51299
Description: (§3) The antibacterial potency of Compound 34 was measured using the in vitro broth microdilution assay under assay conditions described by the Clinical and Laboratory Standards Institute. […] The test substance was dissolved in 100% DMSO (unless stated below), suspended completely by sonication or vortexing, diluted by 2-fold serial titrations in the same vehicle, for a total of 10 test concentrations (final concentrations: 100, 50, 25, 12.5, 6.25, 3.125, 1.56, 0.78, 0.39, 0.2 μM). A 4 μL aliquot of each dilution was added to 196 μL of broth medium seeded with the organism suspension in wells of a 96 well plate (bacterial count: 2-8×10^5 colony forming units/mL final). The final volume was 200 μL in each well and the final DMSO concentration was 2 percent. The incubation time is either 1 or 2 days at 36° C. All strains tested underwent aerobic respiration, except for ATCC BAA-1805 and ATCC 29399. Following incubation, the test plates were visually examined and wells were scored for growth or complete growth inhibition to define the minimum inhibitory concentration. Each test substance was evaluated in duplicate and the results below are the duplicate test values. Vehicle-control and an active reference agent were used as blank and positive controls, respectively.

[18] = tested on: Enterococcus faecium ATCC BAA-2320; format: cell-based; details: Enterococcus faecium, ATCCBAA2320
Description: as §3

[19] = tested on: Propionibacterium acnes ATCC 29399; format: cell-based; details: Cutibacterium acnes, ATCC29399
Description: as §3

[20] = tested on: Staphylococcus aureus ATCC BAA-1717; format: cell-based; details: Staphylococcus aureus, ATCCBAA1717
Description: as §3, with “values.” for “values. Vehicle-control and an active reference agent were used as blank and positive controls, respectively.”

[21] = tested on: Staphylococcus aureus ATCC 19636; format: cell-based; details: Staphylococcus aureus, ATCC19636
Description: as §3, with “values.” for “values. Vehicle-control and an active reference agent were used as blank and positive controls, respectively.”

[22] = tested on: Staphylococcus epidermidis ATCC 12228; format: cell-based; details: Staphylococcus epidermidis, ATCC12228
Description: as §3, with “values.” for “values. Vehicle-control and an active reference agent were used as blank and positive controls, respectively.”

SMILES: CC(=O)NC[C@H]1CN(c2ccc(N3CCOCC3)c(F)c2)C(=O)O1 [Linezolid]
- MIC [1]: 6.25 µM (≈ 2.11 µg/mL)
- MIC [2]: 6.25 µM (≈ 2.11 µg/mL)
- MIC ([3]; Mupirocin-susceptible MRSA ATCC-700699 (VISA), read-out: MIC): 3.12 µM (≈ 1.05 µg/mL)
- MIC [4]: 6.25 µM (≈ 2.11 µg/mL)
- MIC [5]: 6.25 µM (≈ 2.11 µg/mL)
- MIC [6]: 6.25 µM (≈ 2.11 µg/mL)
- MIC [7]: 6.25 µM (≈ 2.11 µg/mL)
- MIC [8]: 6.25 µM (≈ 2.11 µg/mL)
- MIC [9]: 6.25 µM (≈ 2.11 µg/mL)
- MIC [10]: 6.25 µM (≈ 2.11 µg/mL)
- MIC [11]: 2 µg/mL and 5.93 µM
- MIC [12]: 2 µg/mL and 5.93 µM
- MIC [13]: 4 µg/mL and 11.9 µM
- MIC [14]: 2 µg/mL and 5.93 µM
- MIC [15]: 2 µg/mL and 5.93 µM
- MIC [16]: 1 µg/mL and 2.96 µM

SMILES: CN(C)c1cc(NC(=O)CNC(C)(C)C)c(O)c2c1C[C@H]1C[C@H]3[C@H](N(C)C)C(O)=C(C(N)=O)C(=O)[C@@]3(O)C(O)=C1C2=O [Tigecycline]
- MIC [17]: 0.063 µg/mL and 0.11 µM
- MIC [18]: 0.063 µg/mL and 0.11 µM

SMILES: CN[C@H](CC(C)C)C(=O)N[C@H]1C(=O)N[C@@H](CC(N)=O)C(=O)N[C@H]2C(=O)N[C@H]3C(=O)N[C@H](C(=O)N[C@H](C(=O)O)c4cc(O)cc(O)c4-c4cc3ccc4O)[C@H](O)c3ccc(c(Cl)c3)Oc3cc2cc(c3O[C@@H]2O[C@H](CO)[C@@H](O)[C@H](O)[C@H]2O[C@H]2C[C@](C)(N)[C@H](O)[C@H](C)O2)Oc2ccc(cc2Cl)[C@H]1O [Vancomycin]
- MIC [1]: 0.78 µM (≈ 1.13 µg/mL)
- MIC [2]: 0.78 µM (≈ 1.13 µg/mL)
- MIC [3]: 6.25 µM (≈ 9.06 µg/mL)
- MIC [4]: 0.78 µM (≈ 1.13 µg/mL)
- MIC [5]: 0.78 µM (≈ 1.13 µg/mL)
- MIC [6]: 0.78 µM (≈ 1.13 µg/mL)
- MIC [7]: 1.56 µM (≈ 2.26 µg/mL)
- MIC [8]: 0.78 µM (≈ 1.13 µg/mL)
- MIC [9]: 0.78 µM (≈ 1.13 µg/mL)
- MIC [10]: 0.78 µM (≈ 1.13 µg/mL)
- MIC [19]: 0.5 µg/mL and 0.35 µM
- MIC [20]: 1 µg/mL (≈ 0.69 µM)
- MIC [21]: 1 µg/mL (≈ 0.69 µM)
- MIC [22]: 1 µg/mL (≈ 0.69 µM)
